Results: the supplement of paper PMC13380429

Experiments:
Conditions in all cases: 72 h
U2OS [1] = assay: cell viability relative to DMSO; higher = less toxic
Calu-3 [2] = assay: as above
Caco-2 [3] = assay: as above
HepG2 [4] = assay: as above
Vero E6 [5] = assay: as above
U2OS [6] = assay: relative viability EC50 (midpoint between 100% and the lowest measured viability); higher = less toxic
Calu-3 [7] = assay: as above
Caco-2 [8] = assay: as above
Vero E6 [9] = assay: as above
U2OS [10] = assay: drug sensitivity score (DSS) for viability; higher = more toxic; extreme values may be limits of the assay
Calu-3 [11] = assay: as above
Caco-2 [12] = assay: as above
HepG2 [13] = assay: as above
Vero E6 [14] = assay: as above
HepG2 [15] = assay: relative viability EC50 (midpoint between 100% and the lowest measured viability); higher = less toxic

## CC(C)Oc1ccc(Cc2ccc(NC3=NCCN3)cc2)cc1
U2OS [1]; 1 nM
  cell viability: 95.3%
U2OS [1]; 10 nM
  cell viability: 102%
U2OS [1]; 100 nM
  cell viability: 95.3%
U2OS [1]; 1000 nM
  cell viability: 98.4%
U2OS [1]; 10000 nM
  cell viability: 90.7%
Calu-3 [2]; 1 nM
  cell viability: 104%
Calu-3 [2]; 10 nM
  cell viability: 99.8%
Calu-3 [2]; 100 nM
  cell viability: 95.7%
Calu-3 [2]; 1000 nM
  cell viability: 96.6%
Calu-3 [2]; 10000 nM
  cell viability: 88.2%
Caco-2 [3]; 1 nM
  cell viability: 102%
Caco-2 [3]; 10 nM
  cell viability: 96.1%
Caco-2 [3]; 100 nM
  cell viability: 99.3%
Caco-2 [3]; 1000 nM
  cell viability: 99.4%
Caco-2 [3]; 10000 nM
  cell viability: 82.3%
HepG2 [4]; 1 nM
  cell viability: 102%
HepG2 [4]; 10 nM
  cell viability: 94.6%
HepG2 [4]; 100 nM
  cell viability: 104%
HepG2 [4]; 1000 nM
  cell viability: 97.4%
HepG2 [4]; 10000 nM
  cell viability: 71.6%
Vero E6 [5]; 1 nM
  cell viability: 96.9%
Vero E6 [5]; 10 nM
  cell viability: 97.6%
Vero E6 [5]; 100 nM
  cell viability: 101%
Vero E6 [5]; 1000 nM
  cell viability: 99.5%
Vero E6 [5]; 10000 nM
  cell viability: 96.7%
U2OS [6]
  relative viability EC50: > 10 µM
Calu-3 [7]
  relative viability EC50: > 10 µM
Caco-2 [8]
  relative viability EC50: > 10 µM
Vero E6 [9]
  relative viability EC50: > 10 µM
U2OS [10]
  drug sensitivity score: 0
Calu-3 [11]
  drug sensitivity score: 0
Caco-2 [12]
  drug sensitivity score: 0.5
HepG2 [13]
  drug sensitivity score: 1.6
Vero E6 [14]
  drug sensitivity score: 0

## CCN(CC)Cc1ccc(C(=O)N(CCc2ccccc2OC)[C@@H]2CCNC2)cc1
U2OS [1]; 1 nM
  cell viability: 95.5%
U2OS [1]; 10 nM
  cell viability: 95.7%
U2OS [1]; 100 nM
  cell viability: 96.9%
U2OS [1]; 1000 nM
  cell viability: 97.2%
U2OS [1]; 10000 nM
  cell viability: 99.3%
Caco-2 [3]; 1 nM
  cell viability: 99.2%
Caco-2 [3]; 10 nM
  cell viability: 93%
Caco-2 [3]; 100 nM
  cell viability: 91.6%
Caco-2 [3]; 1000 nM
  cell viability: 101%
Caco-2 [3]; 10000 nM
  cell viability: 98.2%
HepG2 [4]; 1 nM
  cell viability: 97.9%
HepG2 [4]; 10 nM
  cell viability: 96.6%
HepG2 [4]; 100 nM
  cell viability: 108%
HepG2 [4]; 1000 nM
  cell viability: 104%
HepG2 [4]; 10000 nM
  cell viability: 70.5%
Vero E6 [5]; 1 nM
  cell viability: 90.3%
Vero E6 [5]; 10 nM
  cell viability: 97.9%
Vero E6 [5]; 100 nM
  cell viability: 91.5%
Vero E6 [5]; 1000 nM
  cell viability: 93.1%
Vero E6 [5]; 10000 nM
  cell viability: 99.9%
U2OS [6]
  relative viability EC50: > 10 µM
Caco-2 [8]
  relative viability EC50: > 10 µM
Vero E6 [9]
  relative viability EC50: > 10 µM
U2OS [10]
  drug sensitivity score: 0
Caco-2 [12]
  drug sensitivity score: 0
HepG2 [13]
  drug sensitivity score: 1
Vero E6 [14]
  drug sensitivity score: 0

## COc1cc2nc(N3CCCN(C)CC3)nc(NC3CCN(Cc4ccccc4)CC3)c2cc1OC
U2OS [1]; 1 nM
  cell viability: 98%
U2OS [1]; 10 nM
  cell viability: 100%
U2OS [1]; 100 nM
  cell viability: 95%
U2OS [1]; 1000 nM
  cell viability: 96.6%
U2OS [1]; 10000 nM
  cell viability: 43.8%
Calu-3 [2]; 1 nM
  cell viability: 84.2%
Calu-3 [2]; 10 nM
  cell viability: 100%
Calu-3 [2]; 100 nM
  cell viability: 89.7%
Calu-3 [2]; 1000 nM
  cell viability: 94.1%
Calu-3 [2]; 10000 nM
  cell viability: 12.6%
Caco-2 [3]; 1 nM
  cell viability: 96.1%
Caco-2 [3]; 10 nM
  cell viability: 104%
Caco-2 [3]; 100 nM
  cell viability: 88.9%
Caco-2 [3]; 1000 nM
  cell viability: 108%
Caco-2 [3]; 10000 nM
  cell viability: 54.9%
HepG2 [4]; 1 nM
  cell viability: 98.8%
HepG2 [4]; 10 nM
  cell viability: 85.4%
HepG2 [4]; 100 nM
  cell viability: 91.4%
HepG2 [4]; 1000 nM
  cell viability: 67.5%
HepG2 [4]; 10000 nM
  cell viability: 10.3%
Vero E6 [5]; 1 nM
  cell viability: 106%
Vero E6 [5]; 10 nM
  cell viability: 97.4%
Vero E6 [5]; 100 nM
  cell viability: 99.7%
Vero E6 [5]; 1000 nM
  cell viability: 96.2%
Vero E6 [5]; 10000 nM
  cell viability: 26.1%
U2OS [6]
  relative viability EC50: 2.69 µM
Calu-3 [7]
  relative viability EC50: 2.62 µM
HepG2 [15]
  relative viability EC50: 1.37 µM
Vero E6 [9]
  relative viability EC50: 2.77 µM
U2OS [10]
  drug sensitivity score: 3.5
Calu-3 [11]
  drug sensitivity score: 5.7
Caco-2 [12]
  drug sensitivity score: 1.9
HepG2 [13]
  drug sensitivity score: 8.8
Vero E6 [14]
  drug sensitivity score: 4.6

## Cc1cc2c(N3CCCC3)nc(N3CCCC3)nc2n1C
U2OS [1]; 1 nM
  cell viability: 96.2%
U2OS [1]; 10 nM
  cell viability: 101%
U2OS [1]; 100 nM
  cell viability: 101%
U2OS [1]; 1000 nM
  cell viability: 101%
U2OS [1]; 10000 nM
  cell viability: 93.5%
Calu-3 [2]; 1 nM
  cell viability: 103%
Calu-3 [2]; 10 nM
  cell viability: 110%
Calu-3 [2]; 100 nM
  cell viability: 93.5%
Calu-3 [2]; 1000 nM
  cell viability: 94.5%
Calu-3 [2]; 10000 nM
  cell viability: 106%
Caco-2 [3]; 1 nM
  cell viability: 103%
Caco-2 [3]; 10 nM
  cell viability: 92.2%
Caco-2 [3]; 100 nM
  cell viability: 96.9%
Caco-2 [3]; 1000 nM
  cell viability: 97.6%
Caco-2 [3]; 10000 nM
  cell viability: 71.8%
HepG2 [4]; 1 nM
  cell viability: 109%
HepG2 [4]; 10 nM
  cell viability: 94.3%
HepG2 [4]; 100 nM
  cell viability: 101%
HepG2 [4]; 1000 nM
  cell viability: 100%
HepG2 [4]; 10000 nM
  cell viability: 78.4%
Vero E6 [5]; 1 nM
  cell viability: 104%
Vero E6 [5]; 10 nM
  cell viability: 96%
Vero E6 [5]; 100 nM
  cell viability: 104%
Vero E6 [5]; 1000 nM
  cell viability: 99.3%
Vero E6 [5]; 10000 nM
  cell viability: 93.5%
U2OS [6]
  relative viability EC50: > 10 µM
Calu-3 [7]
  relative viability EC50: > 10 µM
HepG2 [15]
  relative viability EC50: > 10 µM
Vero E6 [9]
  relative viability EC50: > 10 µM
U2OS [10]
  drug sensitivity score: 0
Calu-3 [11]
  drug sensitivity score: 0
Caco-2 [12]
  drug sensitivity score: 1.5
HepG2 [13]
  drug sensitivity score: 0.7
Vero E6 [14]
  drug sensitivity score: 0
